From publication PMC10609273, “Radiosynthesis and Early Evaluation of a Positron Emission Tomography Imaging Probe [^18F]AGAL Targeting Alpha-Galactosidase A Enzyme for Fabry Disease” (Molecules, 2023)

Key:
[1] = LogD determination, miniaturized shake flask method; type: physicochemical; settings: octanol/buffer (1:1); octanol/buffer pH 7.4 (1:1), 66.6 μM
Procedure: The distribution of AGAL between an organic solvent (octanol) and aqueous buffer (pH 7.4) was tested using the miniaturized shake flask method in octanol/buffer (1:1). This was accomplished by spiking the test compound (prepared in DMSO) into pre-equilibrated octanol/buffer phases at a concentration of 66.6 μM followed by shaking at 880 rpm for 1 h. The concentration of the test compound in both phases was analyzed using LC–MS/MS.

CYP2D6 = target: T1, CYP2D6 (Homo sapiens, UniProt P10635); assay: Reversible CYP inhibition in pooled HLMs; type: in vitro ADME; settings: 30 µM compound, substrate dextromethorphan
T1 construct: from tissue; host or cells: pooled human liver microsomes (n = 200)
Procedure: (§1) All chemicals and reagents including control compounds were purchased from commercial sources such as Sigma-Aldrich or Toronto Research Chemicals. The test article was tested for reversible inhibition of CYPs in human liver microsomes (HLM) (0.2 mg/mL protein) at a concentration range of 0–30 μM. Each condition was incubated in duplicate. The test article (0–30 μM), NADPH, and the CYP-selective probe substrate were incubated in a 96-well plate at 37 °C in 0.1 M potassium phosphate buffer, pH 7.4. The reactions were initiated by adding the HLMs. The total reaction volume was 100 μL.
(§2) After the incubation period (10 min for CYP1A2, 2B6, and 2C9; 15 min for CYP2C19; and 4 min for CYP2C8 and 2D6 to accommodate linear kinetic conditions) at 37 °C, the reactions were terminated by the addition of 100 μL of ice-cold acetonitrile-containing carbutamide as an IS, then centrifuged at 2500× g for 10 min at 2 °C. A 150 μL aliquot of supernatant for each CYP assay, except for CYP1A2, was then transferred to a new plate for analysis. For CYP1A2, 80 μL of supernatant was transferred to the plate and further diluted with 80 μL of water before analysis. All samples were analyzed with liquid chromatography with tandem mass spectrometry (LC–MS/MS).

CYP2C8 = target: T2, CYP2C8 (Homo sapiens, UniProt P10632); assay: Reversible CYP inhibition in pooled HLMs; type: in vitro ADME; settings: 30 µM compound, substrate amodiaquine
T2 construct: from tissue; host or cells: pooled human liver microsomes (n = 200)
T2 sequence (P10632 1-490): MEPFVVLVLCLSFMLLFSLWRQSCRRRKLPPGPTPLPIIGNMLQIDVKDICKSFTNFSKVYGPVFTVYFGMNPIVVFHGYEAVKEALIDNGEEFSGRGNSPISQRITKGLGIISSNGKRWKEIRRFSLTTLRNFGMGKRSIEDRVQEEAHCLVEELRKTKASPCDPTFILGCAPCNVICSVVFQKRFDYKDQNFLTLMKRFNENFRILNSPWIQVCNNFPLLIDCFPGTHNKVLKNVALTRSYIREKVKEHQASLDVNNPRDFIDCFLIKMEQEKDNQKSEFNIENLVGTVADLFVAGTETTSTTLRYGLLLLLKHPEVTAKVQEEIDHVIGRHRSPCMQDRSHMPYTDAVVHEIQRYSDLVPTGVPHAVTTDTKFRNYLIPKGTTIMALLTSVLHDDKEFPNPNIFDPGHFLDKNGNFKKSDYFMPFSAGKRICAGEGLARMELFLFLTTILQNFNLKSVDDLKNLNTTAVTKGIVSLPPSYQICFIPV
Procedure: as §1, §2

CYP1A2 = target: T3, CYP1A2 (Homo sapiens, UniProt P05177); assay: Reversible CYP inhibition in pooled HLMs; type: in vitro ADME; settings: 30 µM compound, substrate phenacetin
T3 construct: from tissue; host or cells: pooled human liver microsomes (n = 200)
T3 sequence (P05177 1-516): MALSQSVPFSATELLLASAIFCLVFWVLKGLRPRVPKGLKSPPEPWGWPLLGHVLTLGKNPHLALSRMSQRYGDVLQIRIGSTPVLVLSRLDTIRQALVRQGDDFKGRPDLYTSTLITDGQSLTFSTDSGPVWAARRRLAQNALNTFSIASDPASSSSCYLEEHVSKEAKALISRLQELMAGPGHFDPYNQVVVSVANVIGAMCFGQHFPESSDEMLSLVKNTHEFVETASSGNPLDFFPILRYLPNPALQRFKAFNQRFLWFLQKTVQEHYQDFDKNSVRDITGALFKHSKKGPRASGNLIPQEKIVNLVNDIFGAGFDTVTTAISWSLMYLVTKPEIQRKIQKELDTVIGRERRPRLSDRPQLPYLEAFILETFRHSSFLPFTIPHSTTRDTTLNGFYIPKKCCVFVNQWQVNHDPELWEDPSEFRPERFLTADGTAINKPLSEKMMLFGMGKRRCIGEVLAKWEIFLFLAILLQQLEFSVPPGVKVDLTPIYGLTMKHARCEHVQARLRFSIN
Procedure: as §1, §2

CYP2C9 = target: T4, CYP2C9 (Homo sapiens, UniProt P11712); assay: Reversible CYP inhibition in pooled HLMs; type: in vitro ADME; settings: 30 µM compound, substrate diclofenac
T4 construct: from tissue; host or cells: pooled human liver microsomes (n = 200)
Procedure: as §1, §2

[2] = In vitro liver microsomal metabolism study, human; type: in vitro ADME; settings: human liver microsomes
Procedure: Metabolic stability was assessed by incubating compounds in the presence of human, rat, and mouse liver microsomal fractions (Xenotech, Kansas City, KS, USA). All chemicals and reagents, including control compounds, were purchased from commercial sources such as Sigma-Aldrich (St. Louis, MO, USA) or Toronto Research Chemicals (North York, ON, Canada). Liver microsomal incubations were conducted with 100 mM phosphate buffer, 0.5 mg/mL of liver microsomal protein, 2 mM NADPH, 2.5 mM UDPGA, 3 mM MgCl2, alamethicin, and 1 μM test article for a total incubation volume of 80 µL. All reagents except the liver microsomes were mixed together and aliquoted (60 μL) into 96-well plates. The reaction was initiated by adding the microsomes (20 μL). At 0, 3, 7, 12, 20, and 30 min time points, the reactions were terminated with the addition of acetonitrile-containing carbutamide (as an internal standard). The terminated samples were then centrifuged at 2 °C to pellet the protein and the supernatant was injected onto an LC–MS. The test article was monitored for loss over time and the t1/2 was determined. The calculated t1/2 was then used as described below to determine the Eh (hepatic extraction ratio) for both human and rat.
The intrinsic clearance (CLint), hepatic clearance (CLh), and hepatic extraction ratio (Eh) were calculated using the equations below. CLint = (0.693/t1/2 in vitro) × (mL incubation volume/mg microsomal protein) × (X mg of microsomal protein/gram of liver) × (Y g of liver/kg of body weight)(1) CLh = Q × CLint/Q + CLint(2) Eh = CLh/Q(3) where: • CLint = intrinsic clearance (calculated from microsomal incubations) • X = 40 for human, 41.5 for rat and 45 for mouse • Y = 21.4 for human, 40 for rat and 50 for mouse • t1/2 = half-life • CLh = hepatic clearance • Q = liver blood flow rate = 1.24 L/h/kg for human, 4.8 L/h/kg for rat, and 5.4 L/h/kg for mouse • Eh = hepatic extraction ratio • CLh = hepatic clearance

T1 sequence (P10635 whole entry): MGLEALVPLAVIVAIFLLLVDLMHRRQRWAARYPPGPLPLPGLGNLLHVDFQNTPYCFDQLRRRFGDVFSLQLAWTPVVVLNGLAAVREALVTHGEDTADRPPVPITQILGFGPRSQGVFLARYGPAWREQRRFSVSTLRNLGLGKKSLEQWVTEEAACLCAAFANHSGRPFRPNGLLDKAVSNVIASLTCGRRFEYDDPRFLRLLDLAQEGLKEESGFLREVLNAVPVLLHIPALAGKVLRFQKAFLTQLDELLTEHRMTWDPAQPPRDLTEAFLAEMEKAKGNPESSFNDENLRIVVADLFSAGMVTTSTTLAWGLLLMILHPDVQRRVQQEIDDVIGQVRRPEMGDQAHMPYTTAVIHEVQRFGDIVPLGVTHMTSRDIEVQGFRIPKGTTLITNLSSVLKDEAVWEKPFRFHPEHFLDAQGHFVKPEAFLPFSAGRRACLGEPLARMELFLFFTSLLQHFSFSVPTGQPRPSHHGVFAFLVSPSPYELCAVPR
T4 sequence (P11712 whole entry): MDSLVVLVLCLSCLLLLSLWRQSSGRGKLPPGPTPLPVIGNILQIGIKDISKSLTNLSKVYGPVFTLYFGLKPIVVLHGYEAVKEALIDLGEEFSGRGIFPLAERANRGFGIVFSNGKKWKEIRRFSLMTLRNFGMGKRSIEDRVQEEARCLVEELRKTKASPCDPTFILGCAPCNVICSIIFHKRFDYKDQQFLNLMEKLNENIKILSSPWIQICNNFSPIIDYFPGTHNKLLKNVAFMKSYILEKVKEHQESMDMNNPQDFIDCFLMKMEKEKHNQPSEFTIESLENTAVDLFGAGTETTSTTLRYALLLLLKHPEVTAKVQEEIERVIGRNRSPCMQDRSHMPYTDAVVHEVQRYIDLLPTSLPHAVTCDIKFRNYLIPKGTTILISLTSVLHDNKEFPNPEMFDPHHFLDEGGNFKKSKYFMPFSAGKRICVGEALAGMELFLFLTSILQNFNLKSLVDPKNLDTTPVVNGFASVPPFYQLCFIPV

logD at 1 h [1]: -0.43 | reversible inhibition of CYP2D6 activity (CYP2D6): no significant loss of CYP activity | reversible inhibition of CYP2C8 activity (CYP2C8): no significant loss of CYP activity | reversible inhibition of CYP1A2 activity (CYP1A2): no significant loss of CYP activity | reversible inhibition of CYP2C9 activity (CYP2C9): no significant loss of CYP activity | CLh [2]: <4.68 mL/min/kg | Eh (hepatic extraction ratio) [2]: <0.226 | microsomal stability, clearance in words [2]: minimally cleared | CLint scaled at 1 µM ([2]; 1 μM, NADPH + UDPGA): < 6.05 mL/min/kg
Compound: O=C(CCCCCCCn1cc(CCCF)nn1)N1[C@@H]2[C@H](O)[C@@H](O)[C@@H](O)[C@@H](CO)[C@@H]21 [AGAL]
